Laboratory results: patent US4643990A, “N-acyl peptide, processes for their preparation and pharmaceutical compositions thereof” (Fujisawa Pharmaceutical Co., Ltd., priority 1982, dated 1987)

How the values were obtained:
[1] = test system: complement serum (guinea pig complement); experiment: Anticomplementary activity (inhibition of complement hemolysis of sensitized erythrocytes); format: biochemical; conditions: concentration inhibiting hemolysis of sensitized erythrocytes by 50%, 37° C., OD541
Method: The anticomplementary activity of the test compound was measured according to the test method as described in Experimental Immunochemistry, edited by E. A. Kabat and M. M. Mayer, 2nd ed., Springfield, III: C. C. Thomas (1961) pages 133-240.
A mixture of 1 ml of a 5-fold diluted solution of a Veronal buffer solution containing 1.5×10^-4 M Ca^2+ and 5×10^-4 M Mg^2+ and isotonic gelatin, 1.5 ml of complement serum (guinea pig complement) diluted 400 times with a physiological saline solution and 0.05 ml of a solution of a test compound (in this case, a test compound was dissolved in a physiological saline solution) was incubated at 37° C. for 30 minutes. To the said mixture there was added 0.4 ml of sensitized erythrocytes suspension containing 5×10^8 cells/ml and said mixture was incubated at 37° C. further for 60 minutes. After the incubation, the mixture was centrifuged in 3,000 rpm at 4° C. for 10 minutes.
The results are expressed in Table 1 as the concentration of each drugs inhibiting the hemolysis activity by 50% (IC50).

[2] = test system: blood clot from diluted fresh rabbit blood (urokinase, bovine thrombin); experiment: Fibrinolytic activity (modified diluted whole blood clot lysis time method); format: biochemical; conditions: test compound 300 μg/ml; time for complete lysis of diluted rabbit blood clot with urokinase, 37° C.
Method: The enhancement of the fibrinolytic activity of the test compounds was measured according to the modified diluted whole blood clot lysis time method described in
G. R. Fearnley, G. V. Balmforth, E. Fearnley: Clin. Sci. 16, 645-650 (1957) I. S. Chohan et al: Thrombos. Diathes. Haemorrh. 33, 226 (1975) and I. M. Nilsson et al: Handbook of Experimental Pharmacology 46, 110.
Fresh rabbit blood was diluted 20 times with 1/15M phosphate buffer (pH 7.4). A mixture of 400 μl of the diluted blood solution and 50 μl of a test compound (300 μg/ml) was incubated at 37° C. for 30 minutes. To the mixture were added 50 μl of urokinase solution (100 IU/ml) and 50 μl of bovine thrombin (100 N.I.H. u/ml). The clot produced in tubes was incubated at 37° C. for various periods of time. At the end of each incubation interval (15 minutes interval), 2.5 ml of distilled water was added to lyse erythrocytes released from clotted blood and absorbance (OD541) of the supernatant separated by centrifugation (3,000 rpm for 10 minutes) from the reaction mixture was measured. The fibrinolytic activity of the test compound was determined by the time in minutes needed for the complete lysis of the blood clot.
In the absence of a test compound, it took more than 2 hours to lyse blood clot in the above condition. However, blood clot was lysed in the presence of test compounds after 15 minutes (symbol: ++) and 45 minutes (symbol: +) incubation, respectively. Samples which were incapable of lysing blood clot within 1 hour incubation were expressed as symbol (-).

SMILES | Anticomplementary activity (IC50) [1] [µg/mL] | Fibrinolytic activity [2]
CCCCCCCCCCCCCCCC(=O)OC(CCCCCCCCCCCCCCC)CC(=O)N[C@@H](CCC(=O)O)C(=O)N[C@@H](CCC(=O)O)C(=O)O (stereo partly drawn) [19 (2), N-[N-(3-hexadecanoyloxyoctadecanoyl)-L-glutamyl]-L-glutamic acid] | 5.28 | 
CCCCCCCCCCCCCCCC(=O)OC(CCCCCCCCCCCCCCC)CC(=O)N[C@H](C(=O)N[C@@H](CCC(=O)O)C(=O)O)C(C)C (stereo partly drawn) [Example 3, N-[N-(3-hexadecanoyloxyoctadecanoyl)-L-valyl]-L-glutamic acid] | 1.89 | ++ (blood clot was lysed in the presence of test compounds after 15 minutes (symbol: ++))
CCCCCCCCCCCCCCCC(=O)OC(CCCCCCCCCCCCCC)C(=O)N[C@H](C(=O)N[C@@H](CCC(=O)O)C(=O)O)C(C)C (stereo partly drawn) [Example 6, N-[N-(2-hexadecanoyloxyhexadecanoyl)-L-valyl]-L-glutamic acid] | 0.49 | + (45 minutes (symbol: +) incubation)
CCCCCCCCC=CCCCCCCCC(=O)OC(CCCCCCCC=CCCCCCCCC)CC(=O)N[C@H](C(=O)N[C@@H](CCC(=O)O)C(=O)O)C(C)C (stereo partly drawn) [Example 7, N-[N-[3-(9-octadecenoyloxy)-11-eicosenoyl]-L-valyl]-L-glutamic acid] | 3.4 | + (45 minutes (symbol: +) incubation)
CCCCCCCCCCCCCCCC(=O)OC(CCCCCCCCCCCCCCC)CC(=O)N[C@H](C(=O)N[C@@H](CCC(=O)O)C(=O)O)[C@@H](C)O (stereo partly drawn) [Example 8 (2), N-[N-(3-hexadecanoyloxyoctadecanoyl)-L-threonyl]-L-glutamic acid] | 0.67 | ++ (blood clot was lysed in the presence of test compounds after 15 minutes (symbol: ++))
CCCCCCCCCCCCCCCC(=O)OC(CCCCCCCCCCCCCCC)CC(=O)NCCC(=O)N[C@H](C(=O)N[C@@H](CCC(=O)O)C(=O)O)[C@@H](C)O (stereo partly drawn) [Example 10, N-[N-[N-(3-hexadecanoyloxyoctadecanoyl)-β-alanyl]-L-threonyl]-L-glutamic acid] | 1.00 | + (45 minutes (symbol: +) incubation)
CCCCCCCCCCCCCCCC(=O)OC(CCCCCCCCCCCCCCC)CC(=O)NCCCCC(=O)N[C@@H](CCC(=O)O)C(=O)O (stereo partly drawn) [Example 14, N-[N-(3-hexadecanoyloxyoctadecanoyl)-5-aminopentanoyl]-L-glutamic acid] | 0.52 | 
CCCCCCCCCCCCCCCC(=O)OC(CCCCCCCCCCCCCCC)CC(=O)NCCC(=O)N[C@@H](CC(=O)O)C(=O)O (stereo partly drawn) [Example 18, N-[N-(3-hexadecanoyloxyoctadecanoyl)-β-alanyl]-L-aspartic acid] | 0.34 | 
CCCCCCCCCCCCCCCC(=O)OC(CCCCCCCCCCCCCCC)CC(=O)N[C@@H](CCCCN)C(=O)N[C@@H](CCC(=O)O)C(=O)O (stereo partly drawn) [Example 21, N-[N-(3-hexadecanoyloxyoctadecanoyl)-L-lysyl]-L-glutamic acid] |  | + (45 minutes (symbol: +) incubation)
Br.Br.CCCCCCCCCCCCCCCC(=O)OC(CCCCCCCCCCCCCCC)CC(=O)N[C@@H](CCCCN)C(=O)N[C@@H](CCCCN)C(=O)O (stereo partly drawn) [Example 36, N-[N-(3-hexadecanoyloxyoctadecanoyl)-L-lysyl]-L-lysine dihydrogen bromide] | 9.5 | 
CCCCCCCCCCCCCCCC(=O)OC(CCCCCCCCCCCCCCC)CC(=O)N[C@H](C(=O)NCCS(=O)(=O)O)C(C)C (stereo partly drawn) [Example 37, N-[N-(3-hexadecanoyloxyoctadecanoyl)-L-valyl]taurine] | 0.13 | + (45 minutes (symbol: +) incubation)
CCCCCCCCCCCCCCCC(=O)OC(CCCCCCCCCCCCCCC)CC(=O)N[C@@H](CCC(=O)O)C(=O)N[C@H](C(=O)O)[C@@H](C)O (stereo partly drawn) [Example 39, N-[N-(3-hexadecanoyloxyoctadecanoyl)-L-glutamyl]-L-threonine] | 1.67 | 
CCCCCCCCCCCCCCCC(=O)OC(CCCCCCCCCCCCCCC)CC(=O)N[C@H](C(=O)N[C@H](C(=O)O)[C@@H](C)O)[C@@H](C)O (stereo partly drawn) [Example 42, N-[N-(3-hexadecanoyloxyoctadecanoyl)-L-threonyl]-L-threonine] | 0.06 | ++ (blood clot was lysed in the presence of test compounds after 15 minutes (symbol: ++))
CCCCCCCCCCCCCCCC(=O)OC(CCCCCCCCCCCCCCC)CC(=O)N[C@H](C(=O)N[C@@H](CCC(=O)OC)C(=O)OC)[C@@H](C)O (stereo partly drawn) [Example 43, dimethyl N-[N-(3-hexadecanoyloxyoctadecanoyl)-L-threonyl]-L-glutamate] | 30 | 
